Measured values: PubChem BioAssay AID2060896 (Molecular Pharmacology Branch, DTP, NCI, 2025)

System: 941728-121-R-J1-PDC complex spheroid viability
Test: Anticancer human tumor 941728-121-R-J1-PDC patient-derived lung adenocarcinoma cell line growth inhibition [RAS]
Details: for IC50: curve of first compound; for viability, T/C: stronger effect = lower value
How it was run: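 Tumour cells grown as complex spheroids with HUVEC endothelial cells and mesenchymal stem cells, treated with RAS pathway inhibitor combinations. Each agent spans half-log steps from near clinical Cmax, or 10 microM where Cmax is unknown.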

[1] = second compound 0.000949 µM, first compound 0.00316 µM
[2] = second compound 0.000949 µM, first compound 0.01 µM
[3] = second compound 0.000949 µM, first compound 0.0316 µM
[4] = second compound 0.000949 µM, first compound 0.1 µM
[5] = second compound 0.003 µM, first compound 0.00316 µM
[6] = second compound 0.003 µM, first compound 0.01 µM
[7] = second compound 0.003 µM, first compound 0.0316 µM
[8] = second compound 0.003 µM, first compound 0.1 µM
[9] = second compound 0.00949 µM, first compound 0.00316 µM
[10] = second compound 0.00949 µM, first compound 0.01 µM
[11] = second compound 0.00949 µM, first compound 0.0316 µM
[12] = second compound 0.00949 µM, first compound 0.1 µM
[13] = second compound 0.03 µM, first compound 0.00316 µM
[14] = second compound 0.03 µM, first compound 0.01 µM
[15] = second compound 0.03 µM, first compound 0.0316 µM
[16] = second compound 0.03 µM, first compound 0.1 µM
[17] = second compound 0.0949 µM, first compound 0.00316 µM
[18] = second compound 0.0949 µM, first compound 0.01 µM
[19] = second compound 0.0949 µM, first compound 0.0316 µM
[20] = second compound 0.0949 µM, first compound 0.1 µM
[21] = second compound 0.3 µM, first compound 0.00316 µM
[22] = second compound 0.3 µM, first compound 0.01 µM
[23] = second compound 0.3 µM, first compound 0.0316 µM
[24] = second compound 0.3 µM, first compound 0.1 µM
[25] = second compound 0.000949 µM, first compound 0.316 µM
[26] = second compound 0.000949 µM, first compound 1 µM
[27] = second compound 0.003 µM, first compound 0.316 µM
[28] = second compound 0.003 µM, first compound 1 µM
[29] = second compound 0.00949 µM, first compound 0.316 µM
[30] = second compound 0.00949 µM, first compound 1 µM
[31] = second compound 0.03 µM, first compound 0.316 µM
[32] = second compound 0.03 µM, first compound 1 µM
[33] = second compound 0.0949 µM, first compound 0.316 µM
[34] = second compound 0.0949 µM, first compound 1 µM
[35] = second compound 0.3 µM, first compound 0.316 µM
[36] = second compound 0.3 µM, first compound 1 µM
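Further: spheroids exposed to compounds for 7 days before readout.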
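Wherever viability, T/C is given: 100% = DMSO vehicle control viability.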

With `CC(C)n1nc(-c2ccc3oc(N)nc3c2)c2c(N)ncnc21` + CCn1c(-c2cccnc2C(C)OC)c2c3cc(ccc31)N1CCOC(CC(NC(=O)C(C(C)C)N(C)C(=O)C3(F)CCN(C(=O)C#CC(C)(C)N(C)C)CC3)C(=O)N3CCCC(N3)C(=O)OCC(C)(C)C2)C1 the IC50 (second compound 0.000949 µM) was < 0.316 nM, the IC50 (second compound 0.003 µM) was < 0.316 nM and the IC50 (second compound 0.00949 µM) was < 0.316 nM. The IC50 (second compound 0.03 µM) was < 0.316 nM, the IC50 (second compound 0.0949 µM) was < 0.316 nM and the IC50 (second compound 0.3 µM) was < 0.316 nM. It also gave a viability, T/C (second compound 0.000949 µM, first compound 0.000316 µM) of 21.4%, a viability, T/C (second compound 0.000949 µM, first compound 0.001 µM) of 19.7% and a viability, T/C [1] of 12.9%. The viability, T/C [2] was 15.4%, the viability, T/C [3] was 11.6% and the viability, T/C [4] was 6.3%. It also gave a viability, T/C (second compound 0.003 µM, first compound 0.000316 µM) of 23.6%, a viability, T/C (second compound 0.003 µM, first compound 0.001 µM) of 19.4% and a viability, T/C [5] of 14.5%. The viability, T/C [6] was 15.6%, the viability, T/C [7] was 9.94% and the viability, T/C [8] was 7.46%. For the same compound, the viability, T/C (second compound 0.00949 µM, first compound 0.000316 µM) was 21%, the viability, T/C (second compound 0.00949 µM, first compound 0.001 µM) was 17.3% and the viability, T/C [9] was 19.8%. For the same compound, the viability, T/C [10] was 15.3%, the viability, T/C [11] was 9.22% and the viability, T/C [12] was 6.25%. For the same compound, the viability, T/C (second compound 0.03 µM, first compound 0.000316 µM) was 20.8%, the viability, T/C (second compound 0.03 µM, first compound 0.001 µM) was 19.7% and the viability, T/C [13] was 16.8%. The viability, T/C [14] was 14.8%, the viability, T/C [15] was 8.83% and the viability, T/C [16] was 8.55%. The viability, T/C (second compound 0.0949 µM, first compound 0.000316 µM) was 18.8%, the viability, T/C (second compound 0.0949 µM, first compound 0.001 µM) was 20.8% and the viability, T/C [17] was 17.4%. The viability, T/C [18] was 15.2%, the viability, T/C [19] was 9.76% and the viability, T/C [20] was 10.1%. The viability, T/C (second compound 0.3 µM, first compound 0.000316 µM) was 21.7%, the viability, T/C (second compound 0.3 µM, first compound 0.001 µM) was 18.9% and the viability, T/C [21] was 18.9%. It also gave a viability, T/C [22] of 15.9%, a viability, T/C [23] of 10.5% and a viability, T/C [24] of 10.8%.
With `CCN1CCN(Cc2ccc(Nc3ncc(F)c(-c4cc(F)c5nc(C)n(C(C)C)c5c4)n3)nc2)CC1` + CCn1c(-c2cccnc2C(C)OC)c2c3cc(ccc31)N1CCOC(CC(NC(=O)C(C(C)C)N(C)C(=O)C3(F)CCN(C(=O)C#CC(C)(C)N(C)C)CC3)C(=O)N3CCCC(N3)C(=O)OCC(C)(C)C2)C1 the IC50 (second compound 0.000949 µM) was < 3.16 nM, the IC50 (second compound 0.003 µM) was < 3.16 nM and the IC50 (second compound 0.00949 µM) was < 3.16 nM. For the same compound, the IC50 (second compound 0.03 µM) was < 3.16 nM, the IC50 (second compound 0.0949 µM) was < 3.16 nM and the IC50 (second compound 0.3 µM) was < 3.16 nM. It also gave a viability, T/C [1] of 22.2%, a viability, T/C [2] of 23.4% and a viability, T/C [3] of 16.8%. It also gave a viability, T/C [4] of 16.1%, a viability, T/C [25] of 16.6% and a viability, T/C [26] of 12.2%. The viability, T/C [5] was 22.9%, the viability, T/C [6] was 19.3% and the viability, T/C [7] was 17.4%. For the same compound, the viability, T/C [8] was 19.3%, the viability, T/C [27] was 17.3% and the viability, T/C [28] was 11.3%. The viability, T/C [9] was 21.3%, the viability, T/C [10] was 21.9% and the viability, T/C [11] was 19.8%. For the same compound, the viability, T/C [12] was 17.7%, the viability, T/C [29] was 15.8% and the viability, T/C [30] was 12.9%. The viability, T/C [13] was 24.5%, the viability, T/C [14] was 21.8% and the viability, T/C [15] was 18%. It also gave a viability, T/C [16] of 19.2%, a viability, T/C [31] of 13.6% and a viability, T/C [32] of 17.5%. For the same compound, the viability, T/C [17] was 21.9%, the viability, T/C [18] was 23.3% and the viability, T/C [19] was 19.8%. For the same compound, the viability, T/C [20] was 16.3%, the viability, T/C [33] was 11.7% and the viability, T/C [34] was 15.8%. The viability, T/C [21] was 21.2%, the viability, T/C [22] was 21.9% and the viability, T/C [23] was 21.3%. It also gave a viability, T/C [24] of 16.3%, a viability, T/C [35] of 16% and a viability, T/C [36] of 17.9%.
With `C[C@@H](NC(=O)c1ncnc(N)c1Cl)c1ncc(C(=O)Nc2cc(C(F)(F)F)c(Cl)cn2)s1` + CCn1c(-c2cccnc2C(C)OC)c2c3cc(ccc31)N1CCOC(CC(NC(=O)C(C(C)C)N(C)C(=O)C3(F)CCN(C(=O)C#CC(C)(C)N(C)C)CC3)C(=O)N3CCCC(N3)C(=O)OCC(C)(C)C2)C1 the IC50 (second compound 0.000949 µM) was < 31.6 nM, the IC50 (second compound 0.003 µM) was < 31.6 nM and the IC50 (second compound 0.00949 µM) was < 31.6 nM. For the same compound, the IC50 (second compound 0.03 µM) was < 31.6 nM, the IC50 (second compound 0.0949 µM) was < 31.6 nM and the IC50 (second compound 0.3 µM) was < 31.6 nM. For the same compound, the viability, T/C [3] was 25.9%, the viability, T/C [4] was 26.5% and the viability, T/C [25] was 20.4%. For the same compound, the viability, T/C [26] was 26.4%, the viability, T/C (second compound 0.000949 µM, first compound 3.16 µM) was 24.6% and the viability, T/C (second compound 0.000949 µM, first compound 10 µM) was 16.7%. It also gave a viability, T/C [7] of 21.6%, a viability, T/C [8] of 20.3% and a viability, T/C [27] of 19.4%. For the same compound, the viability, T/C [28] was 23.7%, the viability, T/C (second compound 0.003 µM, first compound 3.16 µM) was 23.5% and the viability, T/C (second compound 0.003 µM, first compound 10 µM) was 17.9%. The viability, T/C [11] was 22.9%, the viability, T/C [12] was 19.8% and the viability, T/C [29] was 24.6%. The viability, T/C [30] was 22.4%, the viability, T/C (second compound 0.00949 µM, first compound 3.16 µM) was 21% and the viability, T/C (second compound 0.00949 µM, first compound 10 µM) was 19.9%. It also gave a viability, T/C [15] of 23.9%, a viability, T/C [16] of 20.6% and a viability, T/C [31] of 26.3%. For the same compound, the viability, T/C [32] was 23.1%, the viability, T/C (second compound 0.03 µM, first compound 3.16 µM) was 17.4% and the viability, T/C (second compound 0.03 µM, first compound 10 µM) was 21.6%. It also gave a viability, T/C [19] of 21.7%, a viability, T/C [20] of 24% and a viability, T/C [33] of 22.6%. It also gave a viability, T/C [34] of 24.4%, a viability, T/C (second compound 0.0949 µM, first compound 3.16 µM) of 21.2% and a viability, T/C (second compound 0.0949 µM, first compound 10 µM) of 22.2%. The viability, T/C [23] was 22.6%, the viability, T/C [24] was 26% and the viability, T/C [35] was 23.2%. It also gave a viability, T/C [36] of 25.1%, a viability, T/C (second compound 0.3 µM, first compound 3.16 µM) of 21.9% and a viability, T/C (second compound 0.3 µM, first compound 10 µM) of 20.1%.
